# Test: gradient 5% acetonitrile 3 min, to 50% in 2 min, to 85% in 15 min, held 3 min, 100 µL/min
# Conditions: column: Zorbax Extend-C18 2.1 x 50 mm; eluents: water / acetonitrile, 0.1% formic acid
# Method in brief: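 Mixtures of ~100 pure standards were chromatographed on a Zorbax Extend-C18 column (2.1 × 50 mm, 1.8 μm) at 100 μL/min using water and acetonitrile, each with 0.1% formic acid. Detection used a quadrupole time-of-flight mass spectrometer in positive and negative ionization mode, and data collection spanned 3 months. Retention time was obtained from adduct peaks picked computationally and each checked manually.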
row,Structure (SMILES),RP-LC retention time [s]
1,CC1CCN(C(=O)CN2C(=O)CCCc3cc(S(=O)(=O)N4CCCCC4)ccc32)CC1,901
2,CCc1ccc(-c2nc(C3CC(=O)N(c4ccc(C)cc4)C3)no2)cc1 (stereo unspecified),1110
3,COc1ccc(N2CCN(C(=O)C34CCC(C)(C(=O)C3)C4(C)C)CC2)cc1 (stereo unspecified),784
4,Cc1ccc(-c2noc(-c3ccccc3S(=O)(=O)N3CCCCC3)n2)cc1,1210
5,Cc1ccc2c(c1)C(O)(CC(=O)c1cccc(Cl)c1)C(=O)N2 (stereo unspecified),785
6,Cc1ccc(CN2CCN(CC(=O)Nc3ccc(Cl)cc3)C(=O)C2=O)cc1,836
7,Cc1cc(-c2nnc(-c3ccccc3)o2)c(C)n1CC(=O)Nc1ccccc1F,952
8,CCCNC(=O)CCc1nc2ccccc2n(CC(=O)NCc2ccc(C)cc2)c1=O,786
9,O=c1c2cc(-c3ccc(F)cc3)nn2ccn1Cc1nc(-c2cccc(F)c2)no1,1060
10,COc1ccc(C2C(C(=O)O)CCC(=O)N2c2ccc(OC)cc2)cc1 (stereo unspecified),656
11,COc1ccc(NC(=O)N2C[C@@H](F)C[C@H]2C(=O)N2CCc3ccccc3C2)cc1OC,732
12,CN1C(=O)Cc2cc(NC(=O)CN3C(=O)c4ccccc4C3=O)ccc21,628
13,CCOc1cccc(-c2noc(-c3nn(-c4ccc(C)c(C)c4)ccc3=O)n2)c1,1060
14,NC(=O)C1CCN(C(c2ccccc2F)c2sc3nc(-c4ccco4)nn3c2O)CC1 (stereo unspecified),677
15,Cc1ccccc1Cn1cc(-c2ccncc2)cc1C(=O)N1CCOCC1,621
16,Cc1ccc(CNc2ccc(-c3nc(-c4ccc(F)cc4)no3)cn2)cc1,1250
17,COc1ccc(-c2oc3c(CC=C(C)C)c(OC4O[C@H](CO)[C@@H](O)[C@H](O)[C@H]4O)cc(O)c3c(=O)c2OC2O[C@@H](C)[C@H](O)[C@@H](O)[C@H]2O)cc1 (stereo partly specified),669
18,CC(NC(=O)C1CCN(c2cnn(Cc3ccccc3)c(=O)c2)CC1)c1cccs1 (stereo unspecified),789
19,COc1cc(C(C)=O)ccc1OCC(O)CN1CCN(c2ccc(C)c(Cl)c2)CC1 (stereo unspecified),585
20,CC1CCN(c2nc3c(c(=O)n(Cc4ccccc4Cl)c(=O)n3C)n2C)CC1,1170
21,Cc1ccc(Nc2c(-c3ccc(Cl)cc3)nc3ncccn23)cc1C,942
22,Cc1ccc(-n2c(N3CCCC(C(=O)Nc4ccc(C)c(F)c4)C3)nc3ccsc3c2=O)cc1 (stereo unspecified),1070

row,Structure (SMILES),RP-LC retention time [s]
1,CCN1CCN(C(=O)C2CCCN(c3nccc(C)n3)C2)CC1 (stereo unspecified),559
2,Clc1cccc(-n2ncc3c(SCc4cccnc4)ncnc32)c1,820
3,CCCCN(C)CCNC(=O)c1ccc(N2CCCC2=O)cc1,581
4,COCC(=O)N1N=C(c2cccc(NS(C)(=O)=O)c2)CC1c1ccccc1F (stereo unspecified),718
5,CCn1ccc2cc(S(=O)(=O)N3CCC(C(=O)NCC4CCCO4)CC3)ccc21 (stereo unspecified),771
6,O=c1c2c(CO)c(-c3ccccc3)nn2ccn1Cc1cc(F)ccc1F,924
7,CC(C)c1noc(-c2ccnc(-n3cnc(C(=O)N(C)C4CCCCC4)c3)c2)n1,622
8,CC(C)(C)NC(=O)N1CC2CC1C(=O)O2 (stereo unspecified),596
9,CCN(CC)S(=O)(=O)c1ccc2c(c1)N(CC(=O)NCc1ccccc1C)C(=O)C1CCCCN21 (stereo unspecified),1020
10,COc1cc2c(cc1OC)C(C(=O)NCCCN1CCCC1=O)C1c3ccccc3CCN1C2=O (stereo unspecified),663
11,COc1ccc(Cl)cc1N1C=C(C#N)S(=O)(=O)c2ccc(F)cc21,968
12,O=C1C2N=NN(Cc3nc(-c4cccc(C(F)(F)F)c4)no3)C2C(=O)N1c1ccc2c(c1)CCC2 (stereo unspecified),1170
13,COc1cc(OC)cc(C(=O)N2CCN(c3cc(-c4cccs4)[nH]n3)CC2)c1,794
14,Cc1cccc(-c2nnc(-c3cc(S(=O)(=O)N(C)C)ccc3Cl)o2)c1,1050
15,Cc1nc(-c2cnccn2)n(CC(=O)Nc2cccc(C#N)c2)c(=O)c1C,711
16,CC(C)(C)C(=O)N1CCCC1c1nc2ccccc2s1 (stereo unspecified),932
17,O=C(Cc1cccs1)N1CCC2(CC1)N=C(c1ccc(Cl)cc1)NO2,859
18,NC(=O)C1CCN(c2ncnc3c2oc2ccccc23)CC1,584
19,Cc1ccc(-c2nc(-c3ccc4nnn(C)c4c3)no2)cc1,968
20,Cc1sc2ccn(Cc3ccc(F)cc3)c(=O)c2c1C(=O)NC1CCCCC1,973
21,CCN1CCN(CCCNC(=O)c2c(N3CCCC3=O)c3cc(F)ccc3n2CC)CC1,602
22,CC1CCN(C(=O)C2CC(=O)N(CCc3c[nH]c4ccc(F)cc34)C2)CC1 (stereo unspecified),797

row,Structure (SMILES),RP-LC retention time [s]
1,Cn1c(C2CCN(C(=O)Nc3cccc(C(F)(F)F)c3)CC2)cc(=O)n2nccc12,717
2,COc1ccc(-c2noc(C3CC(=O)N(c4ccc(Cl)cc4)C3)n2)c(OC)c1 (stereo unspecified),928
3,Cc1ccc(CNC(=O)C2(C)Cn3cnc(C(=O)N4CCCCC4)c3C(=O)N2C2CC2)cc1 (stereo unspecified),784
4,CC(C)Cc1csc(-c2csc(S(=O)(=O)NCc3cc(F)cc(F)c3)c2)n1,1200
5,CSc1ccc(NC(=O)c2ccccc2C(F)(F)F)nn1,765
6,O=C(NCCc1ccccc1)NCc1cccn1Cc1ccc(F)cc1,965
7,O=C(Nc1ccc(F)cc1F)c1ccc(Br)cc1F,969
8,O=C(C1=CN(c2cccc(Cl)c2)c2cc(F)ccc2S1(=O)=O)N1CCOCC1,811
9,Cc1cc(=O)n(CC(=O)Nc2cccc(Cl)c2)c(N2CCCCC2)n1,701
10,O=C(C1CCCN(c2ncnc3c2nc2n3CCCCC2)C1)N1CCCCCC1 (stereo unspecified),766
11,CCOc1cccc(-c2noc(-c3nn(-c4cccc(OC)c4)ccc3=O)n2)c1,968
12,CCCn1ccc2oc(C)c(C(=O)NCc3cccc(Br)c3)c2c1=O,1130
13,COCc1ncc(C)n1CCNC(=O)NC1CCCCC1,587
14,CCOCC(=O)N1CCCC(c2nc(CNC(=O)C3CCC3)cs2)C1 (stereo unspecified),645
15,O=C(NCCN1CCOCC1)c1ccc(-c2ccc(N3CCCCCC3)nc2)cc1,566
16,CCOc1ccc(-n2cc(-c3nc(-c4cccc(OC)c4)no3)c3ccccc3c2=O)cc1,1390
17,O=C(CCc1ccccc1)Nc1ccc2[nH]c(=O)oc2c1,713
18,CCn1c(=O)c(NCc2cc(F)ccc2F)nc2ccncc21,568
19,CCCn1c(C)cnc1C1CN(S(=O)(=O)c2cc(Cl)ccc2Cl)C1,607
20,O=C1NC2(CCN(C(=O)c3ccccc3F)CC2)N=C1c1ccc(Cl)cc1,871
21,CCOC(=O)C1=C(c2ccc(OC)cc2)NC(=O)NC1c1ccc(OC)cc1 (stereo unspecified),840
22,Cc1nn(-c2cc(N3CCCCC3)ncn2)c(C)c1CCC(=O)NCc1ccco1,811

# Reference: the METLIN SMRT retention time set (Domingo-Almenara et al. 2019)
